Active and inactive are the calls of the source.
Tests used:
[1] = system: Macrophage; assay: Modulation of GM-CSF-driven human macrophage differentiation assessed as induction of heat killed Candida albicans-stimulated IL-12p40 production in at 10 ug/ml after 20 hrs; assay type: functional, cell-based
[2] = system: Candida albicans; assay: Antimicrobial activity against Candida albicans infected in human macrophage assessed as fungus phagocytosing compound-treated macrophages at 30 mins by FACS analysis (reference value: 28%); assay type: functional
[3] = system: Staphylococcus aureus; assay: Antimicrobial activity against Staphylococcus aureus LUH2141 infected in human macrophage at 120 mins by FACS analysis (reference value: 17%); assay type: functional, organism-based
[4] = system: Macrophage; assay: Modulation of GM-CSF-driven human macrophage differentiation assessed as induction of LTA-stimulated IL-12p40 production in at 1 to 100 ug/ml after 20 hrs; assay type: functional, cell-based
[5] = system: Macrophage; assay: Modulation of GM-CSF-driven human macrophage differentiation assessed as induction of LTA-stimulated TNFalpha production in at 1 to 100 ug/ml after 20 hrs; assay type: functional, cell-based
[6] = system: Staphylococcus aureus; assay: Antimicrobial activity against Staphylococcus aureus LUH2141 infected in human macrophage assessed as bacteria phagocytosing macrophages at 120 mins by FACS analysis (reference value: 66%); assay type: functional
[7] = system: Candida albicans; assay: Antimicrobial activity against Candida albicans infected in human macrophage assessed as fungus phagocytosing compound-treated macrophages at 15 mins by FACS analysis (reference value: 13%); assay type: functional
[8] = system: Macrophage; assay: Modulation of GM-CSF-driven human macrophage differentiation assessed as induction of LTA-stimulated IL-10 production in at 1 to 100 ug/ml after 20 hrs; assay type: functional, cell-based
[9] = system: Macrophage; assay: Modulation of GM-CSF-driven human macrophage differentiation assessed as induction of 1 ng/ml LTA-stimulatedMCP1 production at 100 ug/ml after 20 hrs; assay type: functional, cell-based
[10] = system: Staphylococcus aureus; assay: Antimicrobial activity against Staphylococcus aureus LUH2141 infected in human macrophage at 60 mins by FACS analysis (reference value: 9%); assay type: functional, organism-based
[11] = system: Macrophage; assay: Modulation of GM-CSF-driven human macrophage differentiation assessed as induction of LPS-stimulated TNFalpha production in at 1 to 100 ug/ml after 20 hrs; assay type: functional, cell-based
[12] = system: Staphylococcus aureus; assay: Antimicrobial activity against Staphylococcus aureus LUH2141 infected in human macrophage assessed as bacteria phagocytosing macrophages at 60 mins by FACS analysis (reference value: 30%); assay type: functional
[13] = system: Candida albicans; assay: Antimicrobial activity against Candida albicans infected in human macrophage assessed as fungus phagocytosing compound-treated macrophages at 60 mins by FACS analysis (reference value: 47%); assay type: functional
[14] = system: Macrophage; assay: Modulation of GM-CSF-driven human macrophage differentiation assessed as induction of CD14 expression in at 100 ug/ml after 7 days by flow cytometry; assay type: functional, cell-based
[15] = Modulation of GM-CSF-driven human macrophage differentiation assessed as induction of TLR4 expression in at 100 ug/ml after 7 days by flow cytometry; assay type: functional, cell-based
[16] = system: Macrophage; assay: Modulation of GM-CSF-driven human macrophage differentiation assessed as induction of 10 ng/ml LTA-stimulatedMCP1 production at 100 ug/ml after 20 hrs; assay type: functional, cell-based
[17] = system: Macrophage; assay: Modulation of GM-CSF-driven human macrophage differentiation assessed as induction of CD206 expression at 100 ug/ml after 7 days by flow cytometry; assay type: functional, cell-based
[18] = system: Candida albicans; assay: Antimicrobial activity against Candida albicans infected in human macrophage assessed as induction of phagocytosis of fungus after 60 mins by flow cytometry; assay type: functional, organism-based
[19] = system: Macrophage; assay: Modulation of GM-CSF-driven human macrophage differentiation assessed as induction of 1x10^6 CFU heat-killed Candida albicans cells-stimulated TNF-alpha production at 100 ug/ml after 20 hrs; assay type: functional, cell-based
[20] = Modulation of GM-CSF-driven human macrophage differentiation assessed as induction of dectin-1 expression at 100 ug/ml after 7 days by flow cytometry; assay type: functional, cell-based
[21] = system: Macrophage; assay: Modulation of GM-CSF-driven human macrophage differentiation assessed as induction of 0.1 ng/ml LPS-stimulatedIL-10 production at 100 ug/ml after 20 hrs; assay type: functional, cell-based
[22] = system: Candida albicans; assay: Antimicrobial activity against Candida albicans infected in human macrophage assessed as induction of phagocytosis of fungus after 10 mins by flow cytometry; assay type: functional, organism-based
[23] = system: Macrophage; assay: Modulation of GM-CSF-driven human macrophage differentiation assessed as induction of CD11b expression at 100 ug/ml after 7 days by flow cytometry; assay type: functional, cell-based
[24] = system: Monocyte; assay: Modulation of GM-CSF-driven human monocytes differentiation assessed as induction of LPS-induced IL-10 production after 7 days; assay type: functional, cell-based
[25] = system: Monocyte; assay: Modulation of GM-CSF-driven human monocytes differentiation assessed as induction of LPS-induced IL-10 production after 10 mins; assay type: functional, cell-based
[26] = Modulation of GM-CSF-driven human macrophage differentiation assessed as induction of TLR2 expression in at 100 ug/ml after 7 days by flow cytometry; assay type: functional, cell-based
[27] = system: Monocyte; assay: Modulation of GM-CSF-driven human monocytes differentiation assessed as induction of LPS-induced IL-10 production after 60 mins; assay type: functional, cell-based
[28] = system: Macrophage; assay: Modulation of GM-CSF-driven human macrophage differentiation assessed as induction of heat killed Candida albicans-stimulated IL-10 production in at 1 to 100 ug/ml after 20 hrs; assay type: functional, cell-based
[29] = system: Macrophage; assay: Modulation of GM-CSF-driven human macrophage differentiation assessed as induction of LPS-stimulated IL-10 production in at 1 to 100 ug/ml after 20 hrs; assay type: functional, cell-based
[30] = system: Macrophage; assay: Modulation of GM-CSF-driven human macrophage differentiation assessed as induction of heat killed Candida albicans-stimulated TNFalpha production in at 1 to 100 ug/ml after 20 hrs; assay type: functional, cell-based
[31] = system: Macrophage; assay: Modulation of GM-CSF-driven human macrophage differentiation assessed as induction of LPS-stimulated IL-12p40 production in at 1 to 100 ug/ml after 20 hrs; assay type: functional, cell-based
[32] = system: Candida albicans; assay: Antimicrobial activity against Candida albicans infected in human macrophage assessed as fungal clearance at 60 mins by FACS analysis (reference value: 56%); assay type: functional, organism-based

Measured: Activity

H-GRRRRSVQWCA-OH
54%: [13]
inactive: [5] | [11] | [22] | [23] | [25] | [26] | [31]
22%: [7]
49%: [12]
41%: [2]
72%: [6]
active: all other assays above

From ChEMBL document CHEMBL1212787, “Antimicrobial peptide hLF1-11 directs granulocyte-macrophage colony-stimulating factor-driven monocyte differentiation toward macrophages with enhanced recognition and clearance of pathogens” (2010)
